Laboratory results from patent publication US11919902B2, “Aryl-bipyridine amine derivatives as phosphatidylinositol phosphate kinase inhibitors” (HiberCell, Inc., priority 2017, dated 2024).

What was measured:
[1] = biological target: T1, PIP4K2A (full length protein, SignalChem) (Homo sapiens, UniProt P48426); assay: Kinase Assay PIP4K2 A (Sprint); ADP-Glo biochemical assay; conditions: Table 2; compounds listed under IC50 range headings
T1 construct: 4 nM PIP4K2A (full length protein, SignalChem); purchased SignalChem
T1 sequence (P48426 1-406): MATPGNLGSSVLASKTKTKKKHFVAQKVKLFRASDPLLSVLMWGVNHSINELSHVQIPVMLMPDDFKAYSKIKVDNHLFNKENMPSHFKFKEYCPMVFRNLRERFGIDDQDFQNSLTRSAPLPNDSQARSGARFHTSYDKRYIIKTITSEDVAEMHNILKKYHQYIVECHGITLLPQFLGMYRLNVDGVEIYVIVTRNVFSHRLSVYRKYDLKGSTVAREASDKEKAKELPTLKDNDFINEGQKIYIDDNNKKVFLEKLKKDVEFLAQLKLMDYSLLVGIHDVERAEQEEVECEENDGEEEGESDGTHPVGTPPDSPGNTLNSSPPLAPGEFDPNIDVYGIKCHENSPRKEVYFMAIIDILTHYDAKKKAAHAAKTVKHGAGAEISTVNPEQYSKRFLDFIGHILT
Description: Dilution series of the compounds were prepared in DMSO at 100 times the final assay concentration (n1=n0/3 in 10 points). The compounds were further diluted to three times the assay concentration in assay buffer (20 mM MOPS pH 7.2, 25 mM magnesium chloride, 0.005% Tween 20). 6 μL of the diluted compounds were added to a 384 well assay plate followed by 9 μL of a mix consisting of 4 nM PIP4K2A (full length protein, SignalChem) and 100 μM PI(5)P diC8 (Tebu-Bio). Enzyme and compounds were pre-incubated at room temperature for 15 min.
Then 3 μL of a solution containing 60 μM ATP (Promega) in assay buffer was added to the wells containing compound and enzyme and mixing was performed by pipetting several times. The reaction was incubated at room temperature for 1 h. Then 18 μL of ADP-Glo™ Reagent (Promega) was added to stop the kinase reaction and deplete the unconsumed ATP, mixing was performed by pipetting several times. The plate was incubated at room temperature for 40 min before addition of 36 μL of Kinase Detection Reagent (Promega) to convert ADP to ATP and introduce luciferase and luciferin to detect ATP. The reaction was incubated at room temperature for 40 min before the luminescence was measured in a in a Victor 3V 1420 multilabel counter (Perkin Elmer).
Percent inhibition of the compounds as compared to dimethyl sulfoxide treated control samples was calculated. Compound concentration versus percent inhibition were fitted to generate IC50 values.

[2] = biological target: T2, GST tagged PIP4KtypeIIB (Homo sapiens, UniProt P78356); assay: Trans-FI P kinase assay PIP4K2B (PIP4KtypeIIB inhibition assay); type: biochemical; conditions: Table 4; compounds listed under IC50 range headings; 100 uM GTP, 5 nM PIP4KIIB; read-out: Trans-FI P kinase assays: PIP4K2B IC50
T2 construct: made in house; host or cells: E. coli
T2 sequence (P78356 1-416): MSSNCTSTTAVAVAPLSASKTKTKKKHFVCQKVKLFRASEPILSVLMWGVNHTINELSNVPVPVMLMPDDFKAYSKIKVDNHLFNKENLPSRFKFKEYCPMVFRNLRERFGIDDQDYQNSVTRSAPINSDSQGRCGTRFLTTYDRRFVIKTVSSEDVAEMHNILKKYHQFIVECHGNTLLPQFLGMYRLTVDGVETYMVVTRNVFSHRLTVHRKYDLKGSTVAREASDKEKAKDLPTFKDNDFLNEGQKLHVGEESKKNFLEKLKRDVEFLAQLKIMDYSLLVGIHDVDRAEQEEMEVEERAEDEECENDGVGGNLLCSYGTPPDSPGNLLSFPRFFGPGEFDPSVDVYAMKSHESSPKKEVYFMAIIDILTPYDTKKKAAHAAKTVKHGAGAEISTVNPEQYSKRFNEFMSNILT
Description: GST tagged PIP4KtypeIIA and B enzymes were overexpressed in E. Coli and purified to >80% homogeneity. Phosphatidyl inositol-5-phosphate (PI5P, Cat. #850152, Avanti Polar Lipids Inc.) was used as the lipid substrate and phosphatidyl ethanolamine (DOPE 18:1, Cat. #850725, Avanti Polar Lipids Inc.) was used as the carrier lipid for assays. Ultrapure ATP and GTP was purchased from Bellbrooke Labs. ADP Glo reagents were obtained from Promega. Transcreener FI reagent was obtained from Bellbrooke labs.
1. HEPES buffer mix: 200 mM HEPES pH 7.4, 50 mM MgCl2, 0.05% v/v triton×100
2. HNE buffer: 20 mM HEPES, pH 7.4, 100 mM NaCl, 0.5 mM EGTA
3. H:E buffer: 30 mM HEPES, pH 7.4, 1 mM EGTA
GST-tagged PIP4KtypeIIB (3.4 uL, 2.77 mg/mL) was diluted to 5 mL using HNE buffer to yield 5× enzyme stock (25 nM)
Lipid Preparation: In a 10 mL pyrex glass vial, lug of PI5P and lug of DOPE were suspended in 2.5 mL of HEPES buffer mix and 2.5 mL of H:E buffer. The contents were mixed and sonicated for 3 min to yield a translucent lipid stock.
Compound Preparation: Compounds were stored as 5 mM stocks in neat DMSO as room temperature in glass vials. 5 mM stocks were diluted to 2 mM and then serially diluted (3×) in neat DMSO in 96 well polypropylene plates. From the serially diluted stocks, 3 uL was delivered into 250 uL of 25% DMSO (in water) to generate 5× compound stocks. Typically, the highest compound conc. was 24 uM.
The assay volume was kept at 25 uL. To each well of the reaction plate, 10 uL of lipid stock (1:1 ratio PI5P:DOPE) was delivered. This was followed by the addition of 5 uL of compound in 25% DMSO. Then, to each well, 5 uL of 25 nM (5×) typeIIB enzyme was delivered. The contents were mixed well and incubated for 1 h at 27 C. After 1 h, reaction was initiated by adding 5 uL of 500 uM GTP and the contents were mixed well with a multi-channel pipetteman. The final concentration of the reagents are as follows: 50 mM HEPES, pH 7.3, 10 mM MgCl2, 20 mM NaCl, 0.01% v/v triton-X100, 5% DMSO, 100 uM GTP, 80 uM (2 ug) PI5P, 2 ug DOPE, and 5 nM PIP4KIIB Typically, the highest conc. of compounds was 4.8 uM and the lowest conc. was 0.
After 2 h, the reaction was quenched by adding 25 uL of transcreener FI reagent. The contents were incubated at RT for 1 h and the Fluorescence (Ex: 584 Em: 623) was read using Molecular Devices Paradigm plate reader. […] The blanks were averaged and subtracted from all other wells. Using a calibration curve, RFU was converted to uM GDP (product). IC50 was calculated by plotting the residual activity (expressed as % No inhibitor control) vs. log [Inh. conc.] Table 2 represents PI5P4K activity of compounds (Example No.) of the invention arranged in accordance with the inhibition of PIP4K2 A kinase assay.

SMILES | IC50 [1] [nM] | IC50 [2] [nM]
C[C@@H]1CCC(=O)N1c1ccc(-c2cncc(-c3ccnc4c3cc3n4CCN(C)C3=O)c2)cc1 [Example 306, (R)-7-methyl-4-(5-(4-(2-methyl-5-oxopyrrolidin-1-yl)phenyl)pyridin-3-yl)-8,9-dihydropyrido[3′,2′:4,5]pyrrolo[1,2-a]pyrazin-6(7H)-one] | 5 to 100 | 1 to 10
Cc1noc2nccc(-c3cncc(-c4ccc(N5CCCC5=O)cc4)c3)c12 [Example 307, 1-(4-(5-(3-methylisoxazolo[5,4-b]pyridin-4-yl)pyridin-3-yl)phenyl)pyrrolidin-2-one] | 1000 to 2500 | 100 to 1000
O=C1CCCN1c1ccc(-c2cncc(-c3ccnc4c3cc3n4CCN(c4ccc5c(n4)OCCO5)C3=O)c2)cc1 [Example 308, 7-(2,3-dihydro-[1,4]dioxino[2,3-b]pyridin-6-yl)-4-(5-(4-(2-oxopyrrolidin-1-yl)phenyl)pyridin-3-yl)-8,9-dihydropyrido[3′,2′:4,5]pyrrolo[1,2-a]pyrazin-6(7H)-one] | 100 to 1000 | 1 to 10
Cc1c[nH]c2nccc(-c3cnc(N)c(-c4ccc(N5CCCC5=O)cc4)c3)c12 [Example 309, 1-(4-(2-amino-5-(3-methyl-1H-pyrrolo[2,3-b]pyridin-4-yl)pyridin-3-yl)phenyl)pyrrolidin-2-one] | 100 to 1000 | 10 to 100
CN(C(=O)c1cc2c(-c3cncc(-c4ccc(N5CCCC5=O)cc4)c3)ccnc2[nH]1)c1cccnc1 [Example 310, N-methyl-4-(5-(4-(2-oxopyrrolidin-1-yl)phenyl)pyridin-3-yl)-N-(pyridin-3-yl)-1H-pyrrolo[2,3-b]pyridine-2-carboxamide] | 100 to 1000 | 100 to 1000
CN(C(=O)c1cc2c(-c3cncc(-c4ccc(N5CCCC5=O)cc4)c3)ccnc2[nH]1)c1ccccc1 [Example 311, N-methyl-4-(5-(4-(2-oxopyrrolidin-1-yl)phenyl)pyridin-3-yl)-N-phenyl-1H-pyrrolo[2,3-b]pyridine-2-carboxamide] | 1000 to 2500 | 100 to 1000
O=C(Nc1ccccn1)c1cc2c(-c3cncc(-c4ccc(N5CCCC5=O)cc4)c3)ccnc2[nH]1 [Example 312, 4-(5-(4-(2-oxopyrrolidin-1-yl)phenyl)pyridin-3-yl)-N-(pyridin-2-yl)-1H-pyrrolo[2,3-b]pyridine-2-carboxamide] | 1000 to 2500 | 10 to 100
CNC(=O)c1[nH]c2nccc(-c3cncc(-c4ccc(N5CCCC5=O)cc4)c3)c2c1C [Example 313, N,3-dimethyl-4-(5-(4-(2-oxopyrrolidin-1-yl)phenyl)pyridin-3-yl)-1H-pyrrolo[2,3-b]pyridine-2-carboxamide] | 1000 to 2500 | 100 to 1000
O=C(Nc1ccncc1)c1cc2c(-c3cncc(-c4ccc(N5CCCC5=O)cc4)c3)ccnc2[nH]1 [Example 314, 4-(5-(4-(2-oxopyrrolidin-1-yl)phenyl)pyridin-3-yl)-N-(pyridin-4-yl)-1H-pyrrolo[2,3-b]pyridine-2-carboxamide] | 1000 to 2500 | 10 to 100
Cc1cc2nc(CNC(=O)c3cc4c(-c5cncc(-c6ccc(N7CCCC7=O)cc6)c5)ccnc4[nH]3)[nH]c2cc1C [Example 315, N-((5,6-dimethyl-1H-benzo[d]imidazol-2-yl)methyl)-4-(5-(4-(2-oxopyrrolidin-1-yl)phenyl)pyridin-3-yl)-1H-pyrrolo[2,3-b]pyridine-2-carboxamide] | 1000 to 2500 | 100 to 1000
Cc1c[nH]c2nccc(-c3cc(-c4ccc(N5CCCC5=O)cc4)cnc3N)c12 [Example 316, 1-(4-(6-amino-5-(3-methyl-1H-pyrrolo[2,3-b]pyridin-4-yl)pyridin-3-yl)phenyl)pyrrolidin-2-one] | 1000 to 2500 | 10 to 100
Cc1cccc2[nH]c(CNC(=O)c3cc4c(-c5cncc(-c6ccc(N7CCCC7=O)cc6)c5)ccnc4[nH]3)nc12 [Example 317, N-((4-methyl-1H-benzo[d]imidazol-2-yl)methyl)-4-(5-(4-(2-oxopyrrolidin-1-yl)phenyl)pyridin-3-yl)-1H-pyrrolo[2,3-b]pyridine-2-carboxamide] | < 5000 | 10 to 100
Cc1[nH]nc2nccc(-c3cncc(-c4ccc(N5CCCC5=O)cc4)c3)c12 [Example 318, 1-(4-(5-(3-methyl-2H-pyrazolo[3,4-b]pyridin-4-yl)pyridin-3-yl)phenyl)pyrrolidin-2-one] | 1000 to 2500 | 100 to 1000
O=C(NCc1nc2ccccc2s1)c1cc2c(-c3cncc(-c4ccc(N5CCCC5=O)cc4)c3)ccnc2[nH]1 [Example 319, N-(benzo[d]thiazol-2-ylmethyl)-4-(5-(4-(2-oxopyrrolidin-1-yl)phenyl)pyridin-3-yl)-1H-pyrrolo[2,3-b]pyridine-2-carboxamide] | 100 to 1000 | 10 to 100
Cc1ccc2nc(CNC(=O)c3cc4c(-c5cncc(-c6ccc(N7CCCC7=O)cc6)c5)ccnc4[nH]3)[nH]c2c1 [Example 320, N-((6-methyl-1H-benzo[d]imidazol-2-yl)methyl)-4-(5-(4-(2-oxopyrrolidin-1-yl)phenyl)pyridin-3-yl)-1H-pyrrolo[2,3-b]pyridine-2-carboxamide] | 1000 to 2500 | 100 to 1000
Cn1c(CNC(=O)c2cc3c(-c4cncc(-c5ccc(N6CCCC6=O)cc5)c4)ccnc3[nH]2)nc2ccccc21 [Example 321, N-((1-methyl-1H-benzo[d]imidazol-2-yl)methyl)-4-(5-(4-(2-oxopyrrolidin-1-yl)phenyl)pyridin-3-yl)-1H-pyrrolo[2,3-b]pyridine-2-carboxamide] | < 5000 | 100 to 1000
